Earlier results in US20190151246A1, “DELAYED-RELEASE TABLETS OF METHYLPHENIDATE” (PRODUCTS & TECHNOLOGY, S.L., priority 2016, published 2019).

SMILES: COC(=O)C(c1ccccc1)C1CCCCN1 (centres unmarked) [methylphenidate, methyl 2-phenyl-2-(2-piperidyl)acetate]
- half-life in children (children, estimated): approximately 2.5 hours
- half-life (in vivo): 2 to 4 h
